Assay results from patent US10736906B2, “Method to enhance tissue regeneration” (CHILDREN'S MEDICAL CENTER CORPORATION, priority 2006, dated 2020).
“Also recorded” adds a separate entry of the source.

Key:
[1] = system: cKit+Sca1+ Lineage- (KSL) bone marrow cells; assay: murine transplantation assay with purified HSCs, CFU-S12; assay type: in vivo, mice; conditions: concurrent administration with BIO; indomethacin 1 mg/kg and 2.5 mg/kg
Experimental: To assess whether prostaglandin levels regulate wnt activity in HSCs, murine transplantation assays were performed utilizing purified HSCs. FACS-isolated cKit+Sca1+ Lineage—(KSL) bone marrow cells were transplanted into lethally irradiated recipients.

wnt activity = wnt activity in TOP:dGFP wnt reporter zebrafish embryos (in situ hybridization and qPCR for GFP); assay type: in vivo; conditions: for wnt activity in the developing brain, liver and gut: developing zebrafish, TOP:dGFP
Text: An embodiment of the present invention provides for manipulation of the genetic interaction between PGE2 and wnt/β-catenin signaling, which regulates developmental specification of stem cells and regeneration. Briefly, prostaglandin (PG) E2 is required for the formation and function of hematopoietic stem cells (HSCs) in vivo, yet its mechanism of action in these cells is not completely understood.
The following RNA probes were used to detect alterations in endodermal and liver development: GFP, LFABP, sterol carrier protein, transferrin, foxA3, insulin, trypsin, and IFABP. Changes in expression compared to wild-type controls are reported as the # altered/# scored per genotype; a minimum of three independent experiments were conducted per analysis.

bone marrow = bone marrow recovery following 5-FU chemical injury in APCMin/+ mice; assay type: in vivo; conditions: 1 mg/kg every 48 hrs, after 5-FU
Experimental: It has been hypothesized that wnt activation regulates HSC self-renewal and repopulation. Wnt activation is also thought to be involved in carcinogenesis, however, making the concept of direct enhancement of wnt signaling problematic. Whether regulation of wnt activity by prostaglandin can effectively modulate HSC homeostasis in the adult, was determined by observing hematopoietic recovery following irradiation in the zebrafish. […] APCMin/+ mice have elevated β-catenin levels due to loss of APC function in the destruction complex.

liver tumor = assay: zebrafish DMBA liver tumor model, ultrasound biomicroscopy; assay type: in vivo
Text: Although zebrafish are a valuable vertebrate model to study carcinogenesis, noninvasive imaging remains challenging because adult fish are not transparent. Tumors can be readily detected in vivo, however, using high-resolution microscopic ultrasound. This technique facilitates tissue perfusion calculations, cellular aspirates, tumor progression analysis, and responses to treatment. Ultrasound biomicroscopy allows longitudinal studies of tumor development and real-time assessment of therapeutic effects in the zebrafish model. The visualization techniques employed herein are described by Goessling et al., 4(7) Nature Methods 551-53 (2007). […] Tumor occurrence was monitored over about five months. Tumors were identified by ultrasound biomicroscopy. The cancerous fish were then treated with indomethacin for twelve hours over night, every three days for one month, and the tumors visualized as described. Goessling et al., 2007. […] After one month of drug treatment, the fish appeared healthy, but were sacrificed to confirm the presence of cancer by histology. […] In another experiment, detailed in FIG. 10B and FIG. 10C, fish were treated every week for tumor prevention. Here, treatment with the carcinogen led to liver tumors in wild-type fish, and to twice as many tumors in APC+/− mutant fish.

adult zebrafish liver = assay: liver regeneration and wound healing after 1/3 partial hepatectomy in adult zebrafish; assay type: in vivo
Text: Following ⅓ partial hepatectomy, the zebrafish liver regenerates within five days to seven days.
As many molecular pathways controlling embryonic development mediate tissue homeostasis in the adult, the effects of prostaglandin signaling during liver regeneration were examined. […] Fish were revived and allowed to heal in fish water.
To test the requirement of functional prostaglandin signaling during regeneration, fish were exposed to the dual-specific cox inhibitor, indomethacin, from hour 6 to hour 18 following partial hepatectomy.
Liver Resection: Folling administration of tricaine anesthetic, ⅓ partial hepaectomy of the adult zebrafish liver was performed under brightfield imaging on a dissection microscope. An incision was made using microdissection scissors posterior to the heart on the left lateral portion of the abdomen.

β-catenin = assay: partial hepatectomy in wild-type and APCMin/+ mice (IHC, western blot, BrdU); assay type: in vivo
Text: Here, APC mutation caused increased total and nuclear β-catenin levels, particularly in the periportal region. […] These findings were confirmed by western blot. β-catenin may cause increased cell proliferation through its target cyclin D1.
Additionally, the present invention provides the first example that the activation of wnt/β-catenin signaling can enhance the rate of liver regeneration. […] Furthermore, the regeneratice advantage is evolutionarily conserved following hepatectomy in APCMin/+ mice. (Murine liver resections were performed as described in Green & Puder, 16 J. Investigational Surgery 99-102 (2003). Thus, the present invention provides for the manipulation of the wnt/β-catenin pathway as a way to enhance liver regeneration in patients, either after liver resection or during recovery from acute liver failure induced by toxins such as acetaminophen.

Question: What does the source list for COc1ccc2c(c1)c(CC(=O)O)c(C)n2C(=O)c1ccc(Cl)cc1 [indomethacin]?
Answer: effect on BIO-enhanced CFU-S number [1]: blocks this effect; also recorded: diminished CFU-S number back to baseline levels; wnt activity in the developing brain, liver and gut (wnt activity): diminished wnt activity; wnt activity in the developing brain, liver and gut (wnt activity; listed as indomethicin): virtual absence of wnt signaling; wnt activity abolished in the AGM and GFP expression markedly decreased globally (# altered/# scored) (wnt activity; indomethacin 10 μM): 72/87; effect on the proliferative advantage (bone marrow recovery) in APCMin/+ mice (bone marrow): markedly diminished the proliferative advantage; solid portion of the tumor, ultrasound (liver tumor; after six treatments): decreased in size; tumor size, ultrasound (liver tumor; after ten treatments): shrunk substantially; tumor size, ultrasound (liver tumor; after three treatments (12 h overnight every three days)): tumor size increased; liver tumor formation (prevention) (liver tumor; weekly treatment, wild-type and especially APC+/− fish): decreased tumor formation; liver architecture (adult zebrafish liver; at resection margin and throughout un-injured portions): altered architecture of the liver; liver regrowth compared to controls (adult zebrafish liver; exposure following resection (indomethacin hour 6 to 18; day 1 and day 3)): significantly reduced liver re-growth; complete regeneration of the liver (adult zebrafish liver; indomethacin: by day 5 post-resection): failed to regenerate fully; wound healing at the incision site (adult zebrafish liver; skin wounds following partial hepatectomy): severely inhibited; also recorded: prohibited wound healing; regenerative index (adult zebrafish liver; treatment 6 to 18 hours post resection, wild-type and APC mutant fish): significantly diminished; β-catenin, immunohistochemistry post resection (adult zebrafish liver; wild-type and APC+/− fish): decrease in overall β-catenin levels; β-catenin levels (β-catenin; 2.5 mg/kg bid sq, both genotypes): decreased β-catenin levels significantly; Cyclin D1 levels and cell proliferation (BrdU incorporation) (β-catenin; APCMin/+ mice): markedly diminished; P-GSK3b (serine 9), IHC (β-catenin; wild-type and APC+/− mice, confirmed by western blot): decreased amounts
